{"source": "patent US10189841B2", "about": "“Purinones as ubiquitin-specific protease 1 inhibitors” (Forma Therapeutics, Inc., priority 2015, dated 2019)", "data": [{"biological_target": "USP1 (construct USP1 (I-785, GG670, 671AA)/UAF1 (I-677)-Flag) (Homo sapiens (Human), UniProt O94782, G670A/G671A)", "sequence (O94782 whole entry G670A/G671A)": "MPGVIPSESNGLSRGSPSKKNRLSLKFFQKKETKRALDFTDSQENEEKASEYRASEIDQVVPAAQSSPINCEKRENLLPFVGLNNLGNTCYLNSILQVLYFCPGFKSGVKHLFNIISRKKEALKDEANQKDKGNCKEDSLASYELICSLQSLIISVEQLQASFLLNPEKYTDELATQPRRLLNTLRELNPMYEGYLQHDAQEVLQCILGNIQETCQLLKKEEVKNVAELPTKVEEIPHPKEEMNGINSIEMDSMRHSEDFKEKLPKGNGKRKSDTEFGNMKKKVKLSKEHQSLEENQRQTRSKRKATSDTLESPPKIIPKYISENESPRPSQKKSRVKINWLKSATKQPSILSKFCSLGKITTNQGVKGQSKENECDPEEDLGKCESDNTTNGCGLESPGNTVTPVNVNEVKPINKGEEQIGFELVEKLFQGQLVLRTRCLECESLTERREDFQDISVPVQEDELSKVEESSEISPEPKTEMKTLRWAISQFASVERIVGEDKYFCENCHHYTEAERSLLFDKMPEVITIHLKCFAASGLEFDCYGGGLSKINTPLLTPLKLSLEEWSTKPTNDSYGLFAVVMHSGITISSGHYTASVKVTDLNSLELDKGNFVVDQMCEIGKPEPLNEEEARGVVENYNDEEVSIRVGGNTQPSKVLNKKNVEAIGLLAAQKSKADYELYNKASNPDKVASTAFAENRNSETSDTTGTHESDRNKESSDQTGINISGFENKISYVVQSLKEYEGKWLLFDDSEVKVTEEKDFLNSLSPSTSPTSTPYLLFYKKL", "sequence (Q8TAF3 whole entry partner)": "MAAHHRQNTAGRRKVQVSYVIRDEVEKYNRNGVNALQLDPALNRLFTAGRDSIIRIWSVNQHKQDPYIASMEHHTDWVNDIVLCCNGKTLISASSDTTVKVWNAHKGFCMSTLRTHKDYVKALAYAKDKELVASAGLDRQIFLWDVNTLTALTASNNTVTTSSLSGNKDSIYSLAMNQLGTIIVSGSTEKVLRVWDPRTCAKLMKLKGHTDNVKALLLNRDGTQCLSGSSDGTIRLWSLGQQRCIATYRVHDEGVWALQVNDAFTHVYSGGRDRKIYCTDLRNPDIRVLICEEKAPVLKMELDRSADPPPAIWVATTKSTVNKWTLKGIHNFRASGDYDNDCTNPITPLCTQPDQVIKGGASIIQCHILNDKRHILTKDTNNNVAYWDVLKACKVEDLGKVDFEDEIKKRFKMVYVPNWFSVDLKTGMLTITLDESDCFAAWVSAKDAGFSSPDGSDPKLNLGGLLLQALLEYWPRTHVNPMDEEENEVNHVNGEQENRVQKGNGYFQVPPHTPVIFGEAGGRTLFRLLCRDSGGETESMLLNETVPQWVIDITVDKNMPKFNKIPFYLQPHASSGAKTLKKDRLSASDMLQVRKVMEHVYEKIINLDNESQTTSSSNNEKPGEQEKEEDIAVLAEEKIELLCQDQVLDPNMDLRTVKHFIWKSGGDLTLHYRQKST", "test": "Ubiquitin-Rhodamine 110 assay for USP1 activity", "type": "biochemical", "details": "USP1/UAF1 25 pM, Ub-Rh110 25 nM, 30 min preincubation", "procedure,_shortened": "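Two formats with the USP1/UAF1 complex and 25 nM ubiquitin-rhodamine 110 in pH 8.0 Tris buffer with calcium, glutathione and detergent. Single-point screening used 10 µM, 100 pM enzyme and 45 min. Inhibition was set against no-enzyme and DMSO wells.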", "units": {"IC50": "µM"}, "values": [{"smiles": "Cc1nc(-c2ccc(Cn3c(=O)n(C)c4cnc(-c5ccccc5C(C)C)nc43)cc2)cn1C", "note": "[Compound I-276, 9-(4-(1,2-dimethyl-1H-imidazol-4-yl)benzyl)-2-(2-isopropylphenyl)-7-methyl-7,9-dihydro-8H-purin-8-one]", "IC50": "< 0.05"}, {"smiles": "COc1ccn(-c2ccc(Cn3c(=O)[nH]c4cnc(-c5ccccc5C(C)C)nc43)cc2)n1", "note": "[Compound I-204, 2-(2-isopropylphenyl)-9-(4-(3-methoxy-1H-pyrazol-1-yl)benzyl)-7,9-dihydro-8H-purin-8-one]", "IC50": "< 0.05"}, {"smiles": "CNc1ncccc1-c1ncc2[nH]c(=O)n(Cc3ccc(-c4nc(C(F)(F)F)cn4C)cc3)c2n1", "note": "[Compound I-311, 9-(4-(1-methyl-4-(trifluoromethyl)-1H-imidazol-2-yl)benzyl)-2-(2-(methylamino)pyridin-3-yl)-7,9-dihydro-8H-purin-8-one]", "IC50": "< 0.05"}, {"smiles": "CC(C)c1ccccc1-c1ncc2[nH]c(=O)n([C@H](CO)c3ccc(F)cc3)c2n1", "note": "[Compound I-180, (S)-9-(1-(4-fluorophenyl)-2-hydroxyethyl)-2-(2-isopropylphenyl)-7,9-dihydro-8H-purin-8-one]", "IC50": "0.05 to 0.2"}, {"smiles": "Cc1cn(C2COC2)c(-c2ccc(Cn3c(=O)[nH]c4cnc(-c5cccc(F)c5C(C)C)nc43)cc2)n1", "note": "[Compound I-202, 2-(3-fluoro-2-isopropylphenyl)-9-(4-(4-methyl-1-(oxetan-3-yl)-1H-imidazol-2-yl)benzyl)-7,9-dihydro-8H-purin-8-one]", "IC50": "< 0.05"}, {"smiles": "CC(C)c1ccccc1-c1ncc2[nH]c(=O)n(Cc3ccc(-n4cc(-c5ccccc5)nn4)cc3)c2n1", "note": "[Compound I-340, 2-(2-isopropylphenyl)-9-(4-(4-phenyl-1H-1,2,3-triazol-1-yl)benzyl)-7,9-dihydro-8H-purin-8-one]", "IC50": "0.2 to 2"}, {"smiles": "CC(C)c1ccccc1-c1ncc2c(n1)n(Cc1ccc(N(C)C(=O)NC3CC3)cc1)c(=O)n2C", "note": "[Compound I-486, 3-cyclopropyl-1-(4-((2-(2-isopropylphenyl)-7-methyl-8-oxo-7,8-dihydro-9H-purin-9-yl)methyl)phenyl)-1-methylurea]", "IC50": "0.2 to 2"}, {"smiles": "COCCOc1ccccc1-c1ncc2[nH]c(=O)n(Cc3ccc(-n4cccn4)cc3)c2n1", "note": "[Compound I-20, 9-(4-(1H-pyrazol-1-yl)benzyl)-2-(2-(2-methoxyethoxy)phenyl)-7,9-dihydro-8H-purin-8-one]", "IC50": "0.2 to 2"}, {"smiles": "CC(C)c1ccccc1-c1ncc2[nH]c(=O)n(C3CCN(c4cccnc4)CC3)c2n1", "note": "[Compound I-144, 2-(2-isopropylphenyl)-9-(1-(pyridin-3-yl)piperidin-4-yl)-7,9-dihydro-8H-purin-8-one]", "IC50": "> 2"}, {"smiles": "Cc1cc(C(=O)N(C)C)nn1-c1ccc(Cn2c(=O)[nH]c3cnc(-c4ccccc4C(C)C)nc32)cc1", "note": "[Compound I-503, 1-(4-((2-(2-Isopropylphenyl)-8-oxo-7,8-dihydro-9H-purin-9-yl)methyl)phenyl)-N,N,5-trimethyl-1H-pyrazole-3-carboxamide]", "IC50": "< 0.05"}, {"smiles": "CCC(N)(CC)c1cn(-c2ccc(Cn3c(=O)[nH]c4cnc(-c5ccccc5C(C)C)nc43)cc2)nn1", "note": "[Compound I-348, 9-(4-(4-(3-aminopentan-3-yl)-1H-1,2,3-triazol-1-yl)benzyl)-2-(2-isopropylphenyl)-7,9-dihydro-8H-purin-8-one]", "IC50": "> 2"}, {"smiles": "O=c1[nH]c2cnc(-c3cc(Cl)ccc3C3CC3)nc2n1Cc1ccc(-n2cccn2)cc1", "note": "[Compound I-95, 9-(4-(1H-pyrazol-1-yl)benzyl)-2-(5-chloro-2-cyclopropylphenyl)-7,9-dihydro-8H-purin-8-one]", "IC50": "< 0.05"}, {"smiles": "CC(C)c1ccccc1-c1ncc2[nH]c(=O)n(C3(c4ccc(F)cc4)CC3)c2n1", "note": "[Compound I-227, 9-(1-(4-fluorophenyl)cyclopropyl)-2-(2-isopropylphenyl)-7,9-dihydro-8H-purin-8-one]", "IC50": "< 0.05"}, {"smiles": "CC(C)c1c(F)cccc1-c1ncc2[nH]c(=O)n(Cc3ccc(-n4cccn4)cc3)c2n1", "note": "[Compound I-170, 9-(4-(1H-pyrazol-1-yl)benzyl)-2-(3-fluoro-2-isopropylphenyl)-7,9-dihydro-8H-purin-8-one]", "IC50": "< 0.05"}, {"smiles": "CC(C)c1ncccc1-c1ncc2[nH]c(=O)n(Cc3ccc(-c4ccn(C)n4)cc3)c2n1", "note": "[Compound I-46, 2-(2-isopropylpyridin-3-yl)-9-(4-(1-methyl-1H-pyrazol-3-yl)benzyl)-7,9-dihydro-8H-purin-8-one]", "IC50": "0.2 to 2"}, {"smiles": "CC(C)c1c(F)cccc1-c1ncc2[nH]c(=O)n(Cc3ccc(-n4ccnn4)cc3)c2n1", "note": "[Compound I-165, 9-(4-(1H-1,2,3-triazol-1-yl)benzyl)-2-(3-fluoro-2-isopropylphenyl)-7,9-dihydro-8H-purin-8-one]", "IC50": "0.05 to 0.2"}, {"smiles": "Cc1nc(-c2ccc(Cn3c(=O)n(C)c4cnc(-c5ccccc5C(C)C)nc43)cc2)n(C)n1", "note": "[Compound I-283, 9-(4-(1,3-dimethyl-1H-1,2,4-triazol-5-yl)benzyl)-2-(2-isopropylphenyl)-7-methyl-7,9-dihydro-8H-purin-8-one]", "IC50": "< 0.05"}, {"smiles": "CC(C)c1ccccc1-c1ncc2[nH]c(=O)n(Cc3ccc(C(=O)N(C)C4CCOC4)cc3)c2n1", "note": "(stereo not drawn) [Compound I-402, 4-((2-(2-isopropylphenyl)-8-oxo-7,8-dihydro-9H-purin-9-yl)methyl)-N-methyl-N-(tetrahydrofuran-3-yl)benzamide]", "IC50": "0.2 to 2"}, {"smiles": "CC(C)c1ccccc1-c1ncc2[nH]c(=O)n(Cc3ccc(C(=O)NC4(c5ccccc5)CCCC4)cc3)c2n1", "note": "[Compound I-359, 4-((2-(2-isopropylphenyl)-8-oxo-7,8-dihydro-9H-purin-9-yl)methyl)-N-(1-phenylcyclopentyl)benzamide]", "IC50": "0.05 to 0.2"}, {"smiles": "CC(C)c1ccccc1-c1ncc2[nH]c(=O)n(Cc3ccc(C(=O)N4CCOC[C@H]4C)cc3)c2n1", "note": "[Compound I-404, (R)-2-(2-isopropylphenyl)-9-(4-(3-methylmorpholine-4-carbonyl)benzyl)-7,9-dihydro-8H-purin-8-one]", "IC50": "0.2 to 2"}, {"smiles": "CC(C)c1ccccc1-c1ncc2c(n1)n(Cc1ccc(-c3nc(C(F)(F)F)cn3C3COC3)cc1)c(=O)n2C", "note": "[Compound I-110, 2-(2-isopropylphenyl)-7-methyl-9-(4-(1-(oxetan-3-yl)-4-(trifluoromethyl)-1H-imidazol-2-yl)benzyl)-7,9-dihydro-8H-purin-8-one]", "IC50": "< 0.05"}, {"smiles": "CC(C)c1ccccc1-c1ncc2[nH]c(=O)n(Cc3ccc(-c4nc(C(F)(F)F)cn4C4COC4)cc3)c2n1", "note": "[Compound I-192, 2-(2-isopropylphenyl)-9-(4-(1-(oxetan-3-yl)-4-(trifluoromethyl)-1H-imidazol-2-yl)benzyl)-7,9-dihydro-8H-purin-8-one]", "IC50": "< 0.05"}, {"smiles": "Cc1cc(C)n([C@H]2CC[C@H](Cn3c(=O)n(C)c4cnc(-c5ccccc5C(C)C)nc43)CC2)n1", "note": "[Compound I-112, 9-(((1r,4r)-4-(3,5-dimethyl-1H-pyrazol-1-yl)cyclohexyl)methyl)-2-(2-isopropylphenyl)-7-methyl-7,9-dihydro-8H-purin-8-one]", "IC50": "> 2"}, {"smiles": "CC(C)c1ncccc1-c1ncc2c(n1)n(Cc1ccc(-c3nc(C4CC4)cn3C)cc1)c(=O)n2C", "note": "[Compound I-515, 9-(4-(4-cyclopropyl-1-methyl-1H-imidazol-2-yl)benzyl)-2-(2-isopropylpyridin-3-yl)-7-methyl-7,9-dihydro-8H-purin-8-one]", "IC50": "0.05 to 0.2"}, {"smiles": "CC(C)c1ncccc1-c1ncc2[nH]c(=O)n(Cc3ccc(-c4nc(C(F)(F)F)cn4C)cc3F)c2n1", "note": "[Compound I-84, 9-(2-fluoro-4-(1-methyl-4-(trifluoromethyl)-1H-imidazol-2-yl)benzyl)-2-(2-isopropylpyridin-3-yl)-7,9-dihydro-8H-purin-8-one]", "IC50": "< 0.05"}, {"smiles": "CCN(CC)C(=O)c1ccc(Cn2c(=O)[nH]c3cnc(-c4ccccc4C(C)C)nc32)cc1", "note": "[Compound I-362, N,N-diethyl-4-((2-(2-isopropylphenyl)-8-oxo-7,8-dihydro-9H-purin-9-yl)methyl)benzamide]", "IC50": "< 0.05"}, {"smiles": "CC(C)c1ccccc1-c1ncc2[nH]c(=O)n(Cc3ccc(-n4cccn4)cc3F)c2n1", "note": "[Compound I-167, 9-(2-fluoro-4-(1H-pyrazol-1-yl)benzyl)-2-(2-isopropylphenyl)-7,9-dihydro-8H-purin-8-one]", "IC50": "0.2 to 2"}, {"smiles": "Cn1cc(C(F)(F)F)nc1-c1ccc(Cn2c(=O)n(C)c3cnc(-c4ccccc4OC(F)(F)F)nc32)cc1", "note": "[Compound I-49, 7-methyl-9-(4-(1-methyl-4-(trifluoromethyl)-1H-imidazol-2-yl)benzyl)-2-(2-(trifluoromethoxy)phenyl)-7,9-dihydro-8H-purin-8-one]", "IC50": "< 0.05"}, {"smiles": "CC(C)c1ccccc1-c1ncc2[nH]c(=O)n(Cc3ccc(-n4nccn4)cc3)c2n1", "note": "[Compound I-140, 9-(4-(2H-1,2,3-triazol-2-yl)benzyl)-2-(2-isopropylphenyl)-7,9-dihydro-8H-purin-8-one]", "IC50": "0.05 to 0.2"}, {"smiles": "CCC(CC)Oc1ncccc1-c1ncc2[nH]c(=O)n(Cc3ccc(-c4nc(C(F)(F)F)cn4C)cc3)c2n1", "note": "[Compound I-427, 9-(4-(1-methyl-4-(trifluoromethyl)-1H-imidazol-2-yl)benzyl)-2-(2-(pentan-3-yloxy)pyridin-3-yl)-7,9-dihydro-8H-purin-8-one]", "IC50": "< 0.05"}, {"smiles": "CC(C)c1ccccc1-c1ncc2c(n1)n(CC1CCN(c3nncs3)CC1)c(=O)n2C", "note": "[Compound I-492, 9-((1-(1,3,4-thiadiazol-2-yl)piperidin-4-yl)methyl)-2-(2-isopropylphenyl)-7-methyl-7,9-dihydro-8H-purin-8-one]", "IC50": "> 2"}, {"smiles": "CC(C)NC(=O)N(C)c1ccc(Cn2c(=O)n(C)c3cnc(-c4ccccc4C(C)C)nc32)cc1", "note": "[Compound I-484, 3-isopropyl-1-(4-((2-(2-isopropylphenyl)-7-methyl-8-oxo-7,8-dihydro-9H-purin-9-yl)methyl)phenyl)-1-methylurea]", "IC50": "0.2 to 2"}, {"smiles": "Cn1cc(C(F)(F)F)nc1-c1ccc(Cn2c(=O)[nH]c3cnc(-c4cccnc4OC4CC4)nc32)cc1", "note": "[Compound I-420, 2-(2-cyclopropoxypyridin-3-yl)-9-(4-(1-methyl-4-(trifluoromethyl)-1H-imidazol-2-yl)benzyl)-7,9-dihydro-8H-purin-8-one]", "IC50": "< 0.05"}]}]}
